Values joined by “and” are separate entries in the source; they are usually repeats but may differ in a detail not shown here. Identical values can stand only once.
Legend:
[1] = system: acute phosphate uptake into plasma; test: Acute phosphate uptake in rats, LY3304000 with fixed 1.2 mg/kg LY3358966; assay type: in vivo; conditions: 1.2 mg/kg LY3358966 alone
Experimental: NHE3 inhibitor LY3304000 and NPT2b inhibitor LY3358966 SDD were used in combination to assess their effect on phosphate absorption in rats. To make the LY3358966 dosing solution, an appropriate amount of LY3358966 SDD was weighed for a 1.2 mg/kg API dosing solution with 10 mL/kg dosing volume and dissolved in water. To make the LY3304000 dosing solution, an appropriate amount of LY3304000 was weighed for a 10 mg/kg dose with 10 mL/kg dosing volume and dissolved in 1% HEC vehicle. The subsequent dosing solutions for 3, 1, 0.3, 0.1, 0.03, 0.01, 0.003, and 0.001 mg/kg LY3304000 were prepared by serial dilutions with 1% HEC. Following 12-hour fasting, male SD rats were orally dosed at 10 mL/kg with 1% HEC vehicle, 1.2 mg/kg LY3358966 or increasing doses of LY3304000 with a fixed, 1.2 mg/kg dose of LY3358966. In the vehicle group, the animals were dosed first with 1% HEC immediately followed by water. In the LY3358966 alone group, the animals were first dosed with 1% HEC immediately followed by LY3358966. In the combination groups, the animals were dosed first with LY3304000 immediately followed by LY3358966. Fifteen minutes later, 2 mL Radiolabeled Phosphate Dosing Solution was orally dosed. Fifteen minutes later, blood was collected by cardiac stick, and plasma was prepared. Radioactivity (dpm) in 50-μL plasma was measured by scintillation counting. To measure the total radioactivity dosed to each rat, the radioactivity in two 10-μL samples of the Radiolabeled Phosphate Dosing Solutions was measured by scintillation counting. The mole amount of phosphate uptake was calculated as described above to determine acute phosphate uptake.

[2] = system: acute phosphate uptake into plasma; design: method as in PMID 35194979; conditions: rats; cited from earlier work
[3] = system: acute phosphate uptake into plasma; design: method as in PMID 35194979; conditions: mice; cited from earlier work
[4] = system: intestinal phosphate absorption; test: Phosphate absorption in rats: 33P in plasma (15 min) and recovered in gastrointestinal tract (4 h), single agents and combination; assay type: in vivo; conditions: 0.4 mg/kg LY3304000, 10 mg/kg LY3358966 or both
Experimental: We also evaluated the effect of LY3304000 and LY3358966 in combination on phosphate absorption in rats by measuring radioactive phosphate recovered in either plasma or the gastrointestinal (GI) tract. In this combination study, two vehicles were used. One is 1% HEC vehicle for making LY3304000 dosing solution, another is 0.46% PVP-VA vehicle contained in LY3358966 SDD. To make the LY3358966 dosing solution, an appropriate amount of LY3358966-SDD was weighed for a 10 mg/kg API dosing solution with 5 mL/kg dosing volume and dissolved in water. To make the LY3304000 dosing solution, an appropriate amount of LY3304000 was weighed for a 0.4 mg/kg dosing solution with 5 mL/kg dosing volume and dissolved in 1% HEC. The Radiolabeled Phosphate Dosing Solutions was made as described above. Following 4-hour fasting with access to water, male SD rats were orally dosed at 10 mL/kg with either two vehicles, an LY3358966 dosing solution and 1% HEC vehicle, an LY3304000 dosing solution and 0.46% PVP-VA vehicle, or an LY3304000 and LY3358966 dosing solutions, combined 1:1 by volume. Fifteen minutes later, Radiolabeled Phosphate Dosing Solution was orally dosed in a 2 mL volume. Fifteen minutes after the radiolabeled phosphate dose, blood was collected by retro orbital bleeding, and plasma was prepared. Radioactivity (dpm) in 20-μL plasma was measured by scintillation counting. The mole amount of phosphate uptake in the plasma was calculated as described above. Four hours post radioactive phosphate dose, the animals were sacrificed by asphyxiation with CO2 followed by cervical dislocation and then the stomach, small intestine, large intestine, and feces were collected and weighed. The tissues and feces were digested in 20 mL or 10 mL of 1 N NaOH, respectively, overnight at 37°C. A 100 μL sample of the homogenates were dispensed into scintillation vials and mixed with 10 mL of Optiphase Supermax scintillation fluid (PerkinElmer), and radioactivity (dpm) was measured by scintillation counting. Very little radioactivity was detected in the feces at 4 hours post radioactive phosphate dose. The percentage of radiolabeled phosphate recovered in the gastrointestinal tissue was defined as radioactivity (dpm) recovered in each fraction compared to the amount of radioactivity (dpm) administered. The mole amount of phosphate uptake into plasma in vehicle and LY3358966 and LY3304000 alone groups were compared to the LY3358966 and LY3304000 combination group using One-way ANOVA with Dunnett’s multiple comparisons. Percent recovery of ^33P phosphate in the rat gastrointestinal tract was analyzed by two-way analysis of variance (ANOVA) in JMP 12.1 to test for additivity of the effects of LY3304000 and LY3358966 on inhibiting phosphate absorption.

phosphate absorption = system: phosphate absorption; design: method as in PMID 30158152; conditions: cited from earlier work
[5] = system: acute phosphate uptake into plasma; design: method as in PMID 34978760; conditions: cited from earlier work

Compound	phosphate uptake, % of the vehicle control [1] [%]	phosphate uptake into plasma ([1]; vehicle 710 nmoles) [nmol]	inhibition of acute phosphate uptake [2]	decrease of acute uptake of radiolabeled phosphate into plasma [3]	phosphate uptake into plasma ([4]; 15 min post 33P phosphate, vehicle 166, mean ± SEM, n=8) [nmol]	inhibition of phosphate uptake into plasma ([4]; 15 min post 33P phosphate, versus vehicle) [%]	percentage of radiolabeled phosphate recovered, Feces ([4]; 4 h) [%]	percentage of radiolabeled phosphate recovered, Large Intestine ([4]; 4 h)	percentage of radiolabeled phosphate recovered, Small Intestine ([4]; 4 h)	percentage of radiolabeled phosphate recovered, Stomach ([4]; 4 h)	percentage of 33P recovered in GI tract, total ([4]; 4 h post 33P phosphate, stomach, small intestine, large intestine and feces, vehicle 25%)	effect on phosphate absorption (phosphate absorption)	effect on plasma 33P-phosphate in NHE3 knockout mice ([5]; 60 minutes after dosing 33P-phosphate)	33P-phosphate levels in plasma, lower than vehicle ([5]; mice, 5 minutes post phosphate dose)	33P-phosphate levels in plasma, elevated versus vehicle ([5]; mice, 60 min post phosphate dose)
CC1(C)CN(C(=O)NCCCCO)CCN1Cc1cccc(C(=O)Nc2sc3c(c2C(=O)Nc2cc(F)c(CCc4ccc(C(=O)O)cc4)c(F)c2)CCCC3)c1 [LY3358966]	71	504	20–30%	over 70%	108	35	<0.1	18.43 +/- 2.03%	8.98 +/- 0.48%	4.86 +/- 1.13%	32 ± 1% and 32% and 32.27 +/- 1.38%	–	–	–	–
CN1Cc2c(Cl)cc(Cl)cc2[C@H](c2cccc(S(=O)(=O)NCCOCCOCCNC(=O)NCCCCNC(=O)NCCOCCOCCNS(=O)(=O)c3cccc([C@@H]4CN(C)Cc5c(Cl)cc(Cl)cc54)c3)c2)C1 [tenapanor]	–	–	–	–	–	–	–	–	–	–	–	little effect	no effect	about 67%	about 50%

Reference: publication PMC10817170, “Effect of an NHE3 inhibitor in combination with an NPT2b inhibitor on gastrointestinal phosphate absorption in Rodent models” (PLOS ONE, 2024)
